Read-outs that look alike come from different tables or passages of the source.
Key:
[1] = target: endogenous ALP in whole blood (Homo sapiens, UniProt P05186); conditions: for Positive control (S) measured value (count of luminescence): cTnI 10 ng/mL added
Protocol: Each sample was measured using a reagent kit for measuring cardiac troponin I (cTnI). The kit contained a solution of the first antibody specific to cTnI (a solution of magnetic particles), a solution of the labeled second antibody, a B/F washing liquid, a substrate solution, and the like, and was packaged in a cartridge applicable to an automated immunoanalyzer described below. In this example, a buffer not containing a labeled antibody was used, instead of the solution of the second antibody labeled with an alkaline phosphatase (hereinafter referred to as “ALP”). The measurement was carried out using an automated immunoanalyzer for an immunoassay using magnetic particles, as disclosed in Japanese Patent No. 3115501. […] The measuring step in the analyzer will be described below.
A chemiluminescent substrate CDP-Star (Tropics) was used as a substrate. A count of luminescence detected by a photomultiplier tube (PMT) was regarded as a result of the measurement.
Each cartridge for an automatic measurement was filled with each sample, a liquid for diluting a sample, the solution of magnetic particles (coated with the first antibody), the washing liquid for B/F separation, the solution of the second antibody, the substrate solution, and the like, and set to the automated analyzer. The following steps were carried out in accordance with a normal procedure: • (1) The sample solution, the solution of magnetic particles, and the solution of the second antibody, previously adjusted to predetermined dilutions with the diluting liquid, were mixed to generate an immunocomplex by an antigen-antibody reaction. • (2) A B/F separation was carried out to remove unreacted substances as follows. The resulting reaction liquid was aspirated into the tip arranged as a line for aspirating a solution, and the magnetic particles were trapped by contact with a magnet on the outer wall of the tip. The solution was delivered from the tip while trapping the magnetic particles on the inner wall of the tip. After the separation, the washing liquid for the B/F separation filled in another reaction vessel was aspirated and delivered to wash the magnetic particles in the tip. • (3) The magnet was separated from the outer wall of the tip. The substrate solution was aspirated and delivered to disperse the magnetic particles trapped on the inner wall of the tip and carry out an enzyme reaction. • (4) An amount of luminescence was measured by PMT.
(§1) The whole blood sample showing a high background in Example 1 was used as a whole blood negative control, and a plasma obtained by centrifuging the whole blood sample was used as a plasma negative control. Further, a sample obtained by adding a commercially available cTnI (10 ng/mL) to the whole blood sample was used as a whole blood positive control, and a plasma obtained by centrifuging the whole blood positive control was used as a plasma positive control. The obtained 4 samples were measured using the automated immunoanalyzer and the reagent kit for measuring cTnI, as described in Example 1 or 2, except that the ALP-labeled antibody was used as the second antibody.
(§2) Levamisole (SIGMA) was used to examine an inhibitory effect on an endogenous ALP. Levamisole was added to the solution of magnetic particles, the substrate solution, or both thereof at the final concentration of 0.2 mM. When levamisole was added to the solution of magnetic particles, the inhibitor acted in the measuring step (1) of the automated immunoanalyzer described in Example 1. When levamisole was added to the substrate solution, the inhibitor acted in the measuring step (3).

ALP used as the label = conditions: addition of levamisole 0.2 mM; positive control
Protocol: as §1, §2

endogenous ALP = endogenous ALP (Homo sapiens, UniProt P05186); conditions: 3 weeks
Protocol: To a solution containing 0.4 mM CDP-Star, levamisole was added to final concentrations of 0.4, 1.0 and 4.0 mM to prepare substrate solutions to be examined. As a control, a substrate solution containing 0.4 mM CDP-Star without levamisole was used. Each solution was kept at 4, 25, and 37° C. for 3 weeks, and each remaining activity was measured.
Further, the substrate solutions containing 0.4 mM levamisole and kept at 4° C. and 37° C. for 3 weeks were used to confirm the inhibitory effect of levamisole.

[2] = levamisole 0.2 mM in magnetic particles solution and substrate solution
[3] = levamisole 0.2 mM in substrate solution only
[4] = plasma (a), levamisole 0.2 mM in magnetic particles solution and substrate solution
[5] = plasma (a), levamisole 0.2 mM in substrate solution only
[6] = whole blood (b), levamisole 0.2 mM in magnetic particles solution and substrate solution
[7] = whole blood (b), levamisole 0.2 mM in substrate solution only

Chain of endogenous ALP in whole blood (P05186 18-501 limits assumed): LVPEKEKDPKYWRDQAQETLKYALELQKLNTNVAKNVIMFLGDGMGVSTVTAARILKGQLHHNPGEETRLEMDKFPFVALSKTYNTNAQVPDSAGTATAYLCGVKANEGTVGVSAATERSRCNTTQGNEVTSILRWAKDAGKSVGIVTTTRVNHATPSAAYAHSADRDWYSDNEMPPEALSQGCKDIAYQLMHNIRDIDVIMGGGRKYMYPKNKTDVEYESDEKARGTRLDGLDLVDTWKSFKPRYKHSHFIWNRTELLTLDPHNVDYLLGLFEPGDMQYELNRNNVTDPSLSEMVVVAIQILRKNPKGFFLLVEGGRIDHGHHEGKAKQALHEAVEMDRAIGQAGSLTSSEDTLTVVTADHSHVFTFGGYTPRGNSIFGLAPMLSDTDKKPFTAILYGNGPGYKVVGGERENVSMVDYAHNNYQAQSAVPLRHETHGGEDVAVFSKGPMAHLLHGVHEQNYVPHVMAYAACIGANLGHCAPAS
Chain of endogenous ALP (P05186 18-501 limits assumed): as above

For `c1ccc([C@H]2CN3CCSC3=N2)cc1` [levamisole], the “increased background caused by an endogenous ALP in whole blood samples or hemolized samples” value ([1]; addition of levamisole 0.2 mM) was “suppressed”, the “Negative control b/a (whole blood to plasma)” value [1, 2] was 2.33 and the “Positive control b/a (whole blood to plasma)” value [1, 2] was 1.22. For the same compound, the “b/[levamisole (—) whole blood negative control]” value [1, 2] was 0.18, the “b/[levamisole (—) whole blood positive control]” value [1, 2] was 0.79 and the “Negative control b/a (whole blood to plasma)” value [1, 3] was 2.41. The “Positive control b/a (whole blood to plasma)” value [1, 3] was 1.33, the “b/[levamisole (—) whole blood negative control]” value [1, 3] was 0.17 and the “b/[levamisole (—) whole blood positive control]” value [1, 3] was 0.94. The “Positive control (S) measured value (count of luminescence)” value (“Positive control (S) measured value” for short) [1, 4] was 78622, the “Positive control (S) measured value” value [1, 5] was 84776 and the “Negative control (N) measured value (count of luminescence)” value (shortened to “Negative control (N) measured value”) [1, 4] was 808. The “S/N (positive control to negative control)” value [1, 4] was 97.3, the “Negative control (N) measured value” value ([1]; plasma (a), levamisole 0.2 mM in substrate (CDP-star) solution only) was 708 and the “S/N (positive control to negative control)” value [1, 5] was 119.7. The “Positive control (S) measured value” value [1, 6] was 95856, the “Positive control (S) measured value” value [1, 7] was 113017 and the “Negative control (N) measured value” value [1, 6] was 1883. The “S/N (positive control to negative control)” value [1, 6] was 50.9, the “Negative control (N) measured value” value ([1]; whole blood (b), levamisole 0.2 mM in substrate (CDP-star) solution only) was 1705 and the “S/N (positive control to negative control)” value [1, 7] was 66.3. The “effect on the ALP used as the label” value (ALP used as the label) was “did not adversely affect”, the “count with stored substrate solution (inhibitory effect of levamisole)” value (endogenous ALP; 0.4 mM levamisole in 0.4 mM CDP-Star substrate solution kept at 4° C.) was 4086 and the “count with stored substrate solution (inhibitory effect of levamisole)” value (endogenous ALP; 0.4 mM levamisole in 0.4 mM CDP-Star substrate solution kept at 37° C.) was 2920.

— patent US20070141645A1, “Measuring method using whole blood” (MITSUBISHI KAGAKU IATRON, INC., priority 2005, published 2007)
